Assay results from patent publication US9657307B2, “Herbicide resistance gene and use thereof” (HANGZHOU RUIFENG BIOTECHNOLOGY LIMITED INC., priority 2010, dated 2017).

Key:
[1] = tested on: transformation line N-Z1-At6; assay: Herbicide and herbicide mixture resistance of transformation line N-Z1-At6; assay type: in vivo, Arabidopsis thaliana; settings: sprayed during the 4th-6th leaf stage
Source text: The resistance capability of N-Z1-At6 to other herbicides was further tested. Atrazine (90% water dispersible granule, Syngenta), Dicamba (48% aqueous formulation, Syngenta), flumiclorac-pentyl (10% emulsifiable concentrate, Sumitomo Chemical Corporation), bentazon, penoxsulam, bensulfuron and tribenuron are respectively sprayed during the 4th-6th leaf stage.
The transformation line N-Z1-At6 was further tested for the resistance to herbicide mixture.

[2] = tested on: untransformed Arabidopsis thaliana seeds; assay: Germination and growth on glyphosate medium; assay type: in vivo; settings: growth medium containing 0.5 mM glyphosate
Description: The seeds obtained from Arabidopsis thaliana infected by Agrobacterium were allowed to germinate and grow in Arabidopsis thaliana growth medium containing 0.5 mM glyphosate. […] However, the seeds that introduced with T-DNA can grow and develop, followed by flowering and harvesting seeds. A total of 35 individual glyphosate-resistant seedlings (T0 generation) were obtained, and the seeds thereof were harvested.

Cynodon dactylon = assay: Herbicide spray resistance determination of Cynodon dactylon; assay type: in vivo; settings: observed after 10 days
Source text: (§1) Cynodon dactylon is a common weed as well as a turfgrass.

[3] = tested on: control weeds including green bristlegrass, wild oats, Amaranthus retroflexus, humulus, purslane, Monochoria vaginalis, piemarker and nutgrass galingale herb; assay: Herbicide spray on control weeds; assay type: in vivo; settings: observed after 10 days
Source text: as §1

[4] = tested on: transgenic rice strains obtained by pCam1300-N-Z1 vector transformation; assay: Herbicide resistance of transgenic rice, pCam1300-N-Z1 vector; assay type: in vivo; settings: after 10 days; for transgenic strains with slow growth / transgenic strains without any observable growth inhibition: of 10 strains; for death rate of transgenic strains: seedlings about 10 cm, 10 strains
Source text: The method for obtaining transgenic rice was implemented using existing technology (Lu Xiongbin, Gong zuxun, 1998, Life Science, 10: 125-131; Liu fan et al., 2003, Molecular Plant Breeding, 1:108-115). Ripe and plump “Xiushui 134” seeds were selected and deshelled, and the calli were induced and produced which would be used as transformation material. Agrobacterium containing target gene vectors pCam1300-N-Z1 and pCam1300-N-Z2 was taken and streaked onto a plate, and single colony was selected and inoculated to prepare Agrobacterium for transformation. The calli to be transformed were placed into Agrobacterium liquid (containing acetosyringone) with proper concentration, allowing the Agrobacterium to be conjugated to the surface of the calli, and then the calli were transferred to a coculture medium and cocultured for 2-3 days. The transformed calli were rinsed with aseptic water and transferred to a selective medium containing appropriate hygromycin, and cultured for screening for two months (subcultured one time during the period). The calli after being screened with good viability were transferred to a pre-differentiation medium and cultured for about 20 days, and then the pre-differentiated calli were transferred to a differential medium and irradiated with light for 14 hours for differentiation and sprouting. After 2-3 weeks, the regenerated plants having resistance were transferred to a rooting medium containing nicosulfuron (0.1 mg/L) for strengthening the seedling and growing roots, and then the regenerated plants were rinsed to remove agar and transferred into a greenhouse to be used as identification materials.
(§2) 10 different transgenic rice strains obtained by pCam1300-N-Z1 vector transformation and non-transgenic strains of the same variety “XiuShui 134” were selected and planted in a greenhouse (at a temperature of 15° C.-25° C.), and nicosulfuron (Yu Nongle, zhejiang Gold-Ox pesticides LTD) was sprayed at 6 mg/square meter when the seedlings have a height of about 10 cm.
(§3) 10 different transgenic rice strains obtained by pCam1300-N-Z1 vector transformation and non-transgenic strains of the same variety “XiuShui 134” were selected and planted in a greenhouse (at a temperature of 15° C.-25° C.), and mesotrione (10% mesotrione suspension, Syngenta) was sprayed at 15 mg/square meter when the seedlings have a height of about 10 cm.

[5] = tested on: non-transgenic strains of the same variety "XiuShui 134"; assay: Herbicide spray on non-transgenic rice; assay type: in vivo; settings: after 10 days
Description: as §2, §3
10 different transgenic rice strains obtained by pCam1300-N-Z2 vector transformation and non-transgenic strains of the same variety “XiuShui 134” were selected and planted in the greenhouse (at a temperature of 15° C.-25° C.), and nicosulfuron was sprayed at 6 mg/square meter when the seedlings have a height of about 10 cm.
10 different transgenic rice strains obtained by pCam1300-N-Z2 vector transformation and non-transgenic strains of the same variety “XiuShui 134” were selected and planted in the greenhouse (at a temperature of 15° C.-25° C.), and mesotrione was sprayed at 15 mg/square meter when the seedlings have a height of about 10 cm.

[6] = tested on: transgenic rice strains obtained by pCam1300-N-Z2 vector transformation; assay: Herbicide resistance of transgenic rice, pCam1300-N-Z2 vector; assay type: in vivo; settings: after 10 days, 10 strains
Source text: The method for obtaining transgenic rice was implemented using existing technology (Lu Xiongbin, Gong zuxun, 1998, Life Science, 10: 125-131; Liu fan et al., 2003, Molecular Plant Breeding, 1:108-115). Ripe and plump “Xiushui 134” seeds were selected and deshelled, and the calli were induced and produced which would be used as transformation material. Agrobacterium containing target gene vectors pCam1300-N-Z1 and pCam1300-N-Z2 was taken and streaked onto a plate, and single colony was selected and inoculated to prepare Agrobacterium for transformation. The calli to be transformed were placed into Agrobacterium liquid (containing acetosyringone) with proper concentration, allowing the Agrobacterium to be conjugated to the surface of the calli, and then the calli were transferred to a coculture medium and cocultured for 2-3 days. The transformed calli were rinsed with aseptic water and transferred to a selective medium containing appropriate hygromycin, and cultured for screening for two months (subcultured one time during the period). The calli after being screened with good viability were transferred to a pre-differentiation medium and cultured for about 20 days, and then the pre-differentiated calli were transferred to a differential medium and irradiated with light for 14 hours for differentiation and sprouting. […]

[7] = tested on: transgenic Arabidopsis thaliana transformation lines (vector pCambia1300-35S/G10-35S/N-Z1); assay: Herbicide resistance of transgenic Arabidopsis thaliana, pCambia1300-35S/G10-35S/N-Z1; assay type: in vivo; settings: 10 days after spraying
Source text: A total of 35 individual transformation lines were obtained using vector pCambia1300-35S/G10-35S/N-Z1. The T1 generation seedlings (obtained after the germination of T0 generation seeds) were sprayed with glyphosate diluted at 1:200 (41% aqueous solution of glyphosate isopropylamine salt, Xin'an chemical company) to remove the isolated plants without introduction of glyphosate-resistant gene. The survived plants were subjected to herbicide resistance test after growing to 4th-6th leaf stages.
(§4) Nicosulfuron resistance test: 10 plants for each line were sprayed with nicosulfuron (the dose is equal to 6 mg/square meter, the effective spraying concentration was 80 mg/L, and the product was Yu Nongle, Zhejiang Gold-Ox pesticides LTD). Non-transgenic recipient parent Arabidopsis thaliana was used as negative control. Their nicosulfuron resistance levels were evaluated 10 days after spraying nicosulfuron. […] All of the non-transgenic recipient parent Arabidopsis thaliana died.
(§5) Mesotrione resistance test: 10 plants for each line were sprayed with mesotrione (the dose is equal to 15 mg/square meter, the effective spraying concentration was 200 mg/L, and the product was 10% mesotrione suspension, Syngenta). Non-transgenic recipient parent Arabidopsis thaliana was used as negative control. Their mesotrione resistant levels were evaluated 10 days after spraying mesotrione. […] All of the non-transgenic recipient parent Arabidopsis thaliana died.
(§6) 2,4-D resistance test: 10 plants for each line were sprayed with 2,4-D (the dose was equal to 150 mg/square meter, the spraying concentration was 1.4 g/L, and the product was soluble powder of […], Haiyan boda fine chemical Co., Ltd). Non-transgenic recipient parent Arabidopsis thaliana was used as negative control. […] All of the non-transgenic recipient parent Arabidopsis thaliana died.

[8] = tested on: Non-transgenic recipient parent Arabidopsis thaliana; assay: Herbicide spray on non-transgenic Arabidopsis thaliana; assay type: in vivo; settings: 10 days after spraying
Description: as §4, §5, §6

[9] = mesotrione 15 mg/square meter (200 mg/L)
[10] = nicosulfuron 6 mg/square meter (80 mg/L), of 35 lines

CCNc1nc(Cl)nc(NC(C)C)n1 [Atrazine]
resistance level of N-Z1-At6 compared with non-transgenic parental plants [1]: obviously improved

COc1c(Cl)ccc(Cl)c1C(=O)O [Dicamba]
resistance level of N-Z1-At6 compared with non-transgenic parental plants [1]: obviously improved

COc1cc(OC)nc(NC(=O)NS(=O)(=O)Cc2ccccc2C(=O)O)n1 [bensulfuron]
resistance level of N-Z1-At6 compared with non-transgenic parental plants [1]: obviously improved

CC(C)N1C(=O)c2ccccc2NS1(=O)=O [bentazon]
resistance level of N-Z1-At6 compared with non-transgenic parental plants [1]: obviously improved

CCCCCOC(=O)COc1cc(N2C(=O)C3=C(CCCC3)C2=O)c(F)cc1Cl [flumiclorac-pentyl]
resistance level of N-Z1-At6 compared with non-transgenic parental plants [1]: obviously improved

O=C(O)CNCP(=O)(O)O [glyphosate]
growth of untransformed seeds after germination [2]: yellowed and died

CS(=O)(=O)c1ccc(C(=O)C2C(=O)CCCC2=O)c([N+](=O)[O-])c1 [mesotrione]
death of Cynodon dactylon (Cynodon dactylon; mesotrione 1000 mg/L sprayed): no death | death of control weeds ([3]; mesotrione 1000 mg/L sprayed): died due to the occurrence of whitening | transgenic strains with slow growth ([4]; mesotrione 15 mg/square meter): 7 strains | transgenic strains without any observable growth inhibition ([4]; mesotrione 15 mg/square meter): 3 strains | death rate of transgenic strains ([4]; mesotrione 15 mg/square meter): 0% | death of non-transgenic strains ([5]; mesotrione 15 mg/square meter): died | death of transgenic strains (N-Z2) ([6]; mesotrione 15 mg/square meter): died | killed [7, 9]: 11 plants | whitening at the early stage, most recovered later [7, 9]: 18 plants | transformation lines with no obvious herbicide damage ([7]; mesotrione 15 mg/square meter (200 mg/L), of 35 lines): 6 lines | death of non-transgenic recipient parent [8, 9]: died

COc1cc(OC)nc(NC(=O)NS(=O)(=O)c2ncccc2C(=O)N(C)C)n1 [nicosulfuron]
death of Cynodon dactylon (Cynodon dactylon; nicosulfuron 400 mg/L sprayed): no death | death of control weeds ([3]; nicosulfuron 400 mg/L sprayed): killed | transgenic strains with slow growth ([4]; nicosulfuron 6 mg/square meter): 2 strains | transgenic strains without any observable growth inhibition ([4]; nicosulfuron 6 mg/square meter): 8 strains | death rate of transgenic strains ([4]; nicosulfuron 6 mg/square meter): 0% | death of non-transgenic strains ([5]; nicosulfuron 6 mg/square meter): died | death of transgenic strains (N-Z2) ([6]; nicosulfuron 6 mg/square meter): died | lines killed [7, 10]: 6 lines | lines with different degrees of growth inhibition [7, 10]: 8 lines | transformation lines with no obvious herbicide damage [7, 10]: 21 lines | death of non-transgenic recipient parent ([8]; nicosulfuron 6 mg/square meter (80 mg/L)): died

COc1cnc(OC)n2nc(NS(=O)(=O)c3c(OCC(F)F)cccc3C(F)(F)F)nc12 [penoxsulam]
resistance level of N-Z1-At6 compared with non-transgenic parental plants [1]: obviously improved

COc1nc(C)nc(N(C)C(=O)NS(=O)(=O)c2ccccc2C(=O)O)n1 [tribenuron]
resistance level of N-Z1-At6 compared with non-transgenic parental plants [1]: obviously improved
